pIC50: −log10 of the molar value.
Tests used:
[1] = test system: LPA-induced MCP-1 in NRK-49F cells; assay: LPA-induced MCP-1 AlphaLISA assay; assay type: cell-based; conditions: Rattus norvegicus, final LPA 10 μM, 7 hours; for Emax: read-out: Maximum Inhibition
Description: Two days prior to the experiment, NRK-49F cells were plated at 8,000 cells/well in 100 μL of growth medium [DMEM (Life Technologies #11995) with 5% dFBS (Life Technologies #30067-334), 100 units/mL penicillin/streptomycin (Life Technologies #15140122)] in 96-well clear flat bottom polystyrene TC-treated microplate (Corning® #3599) and incubated in humidified 10% CO2 at 37° C. One day prior to the experiment, the cell medium was removed and serum free medium [100 μL/well, DMEM (Life Technologies #11995) with 0.1% fatty acid free BSA (Sigma #A6003)] was added with continued incubation in humidified 10% CO2 at 37° C. overnight. On the day of the assay, test compounds were 1:3 serially diluted in 100% DMSO using a BioTek Precision™ system and then transferred (equivalent volume of DMSO as controls) to a plate in serum free medium [DMEM with 0.1% fatty acid free BSA] using a Biomek® NX workstation to give a 2× compound solution. The cell culture medium was removed, and cells were pre-treated with 50 μL/well of 2× compound in serum free medium [DMEM with 0.1% fatty acid free BSA] at 37° C. for 30 minutes. Following the incubation, 50 μL/well of 20 μM LPA diluted in serum free medium [DMEM with 0.1% fatty acid free BSA] was added to the cells. Serum free medium [DMEM with 0.1% fatty acid free BSA] was used as substitution for low control wells while 20 µM LPA was added to high control wells and test compound wells. 200 µM LPA was added to EC100 wells. Final DMSO concentration was 1% in every well. Final LPA concentration in test compound wells and high control wells was 10 μM. […] After the incubation, cell supernatant was transferred to a new 96 well polypropylene plate (Greiner #651201) where it was sealed and stored at −80° C. On the detection day, 5 μL of thawed cell supernatant was transferred to a new white opaque 384-well microplate (Perkin Elmer #6007299). An AlphaLISA® mouse/rat CCL2/MCP1, Immunoassay Research kit (PerkinElmer #AL509F) was used. A mixture (20 μL/well) of AlphaLISA® Anti-Analyte Accept beads (10 μg/mL final) and Biotinylated Antibody Anti-Analyte (freshly prepared, 1 nM final) was added. The mixture in the wells was mixed and then incubated at room temperature for 1 hour. Then SA-Donor beads (25 μL/well, 40 μg/mL final) were added giving a final volume of 50 μL/well. The contents of the wells were mixed and then incubated at room temperature for 0.5 hour (protect from light). The plate was read using the default Envision™ Alpha protocol (PerkinElmer). IC50 values were calculated from curve fits of the ratio data using a four-parameter logistic Hill equation (Assay Explorer 3.3 Client).

LPAR1 = molecular target: T1, LPAR1 (Homo sapiens, UniProt Q92633); assay: LPAR1 FLIPR Assay; assay type: cell-based; conditions: U2OS cells stably expressing LPAR1, LPA (EC80), Calcium 6 FLIPR dye; for Emax: read-out: Maximum Inhibition
T1 construct: host or cells: U2OS
T1 sequence (Q92633 whole entry): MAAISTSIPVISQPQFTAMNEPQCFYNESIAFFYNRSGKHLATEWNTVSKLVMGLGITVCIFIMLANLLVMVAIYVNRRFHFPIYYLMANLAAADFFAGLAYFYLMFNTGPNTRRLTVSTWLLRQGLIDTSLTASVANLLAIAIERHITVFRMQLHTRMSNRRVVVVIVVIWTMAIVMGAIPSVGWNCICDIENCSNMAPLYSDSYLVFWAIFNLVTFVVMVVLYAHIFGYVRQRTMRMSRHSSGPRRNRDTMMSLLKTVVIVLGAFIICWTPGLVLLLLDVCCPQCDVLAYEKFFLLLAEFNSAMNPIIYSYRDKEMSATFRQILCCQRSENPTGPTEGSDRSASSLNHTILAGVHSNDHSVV
Description: U2OS cells stably expressing LPAR1 (Life Technologies #K1519A) were plated at 12000 cells/well in growth medium (McCoy's 5A medium(Life Technologies 16600-082)) with 10% dFBS (Life Technologies 26400-036), 0.1 mM non-essential amino acids, 25 mM HEPES, 1 mM sodium pyruvate, 1% penicillin/streptomycin, 50 μg/mL hygromycin, and 100 μg/mL Geneticin® in black-walled, clear-bottom 384-well plates (Corning #3683) and incubated in humidified 5% CO2 at 37° C. overnight. On the day of the assay, medium was removed and 30 μL of 5% Calcium 6 FLIPR dye in assay buffer-HBSS (Life Technologies #14025) containing 20 mM HEPES (Life Technologies #15630-080) was added to the cells. Cells were incubated at 37° C. in the dark for 2 hours. Compounds were 3-fold serial diluted from 10 mM for 11-points using dimethyl sulfoxide. 1 μL of compound in DMSO was diluted in 82.3 μL assay buffer immediately before the assay. Using a FLIPR® TETRA® system, 15 μL of the (4×) compound solutions were first added to the cells, then 15 μL of LPA (EC80) diluted in of assay buffer supplemented with 0.1% BSA was added 3 minutes later to activate the receptor. Changes in fluorescence were measured at wavelengths of 515-575 nm over the course of the experimental run. IC50 values were calculated from curve fits of the ratio data using a four-parameter logistic Hill equation (Assay Explorer 3.3 Client).

SMILES | pIC50 [1] | Emax [1] [%] | pIC50 (LPAR1) | Emax (LPAR1) [%]
CNS(=O)(=O)NC(=O)CCCCN(CCCc1ccccc1)C(=O)c1cc(OC)c(C)c(OC)c1 [Example 70, 3,5-dimethoxy-4-methyl-N-{5-[(methylsulfamoyl)amino]-5-oxopentyl}-N-(3-phenylpropyl)benzamide] | 6.20 | 90 | 7.25 | 98
COc1ccc(C(=O)N(CCCCC(=O)O)CCCc2ccccc2)cc1F [Example 79, 5-[(3-fluoro-4-methoxybenzoyl)(3-phenylpropyl)amino]pentanoic Acid] | < 5.00 | 36 | < 4.52 | 13
O=C(O)CCCCN(CCCc1ccccc1)C(=O)c1ccc2c(c1)OCO2 [Example 80, 5-[(2H-1,3-benzodioxole-5-carbonyl)(3-phenylpropyl)amino]pentanoic Acid] | < 5.00 | 37 | < 4.52 | 37
COc1cc(C(=O)N(CCCCC(=O)O)CCCc2ccccc2)ccc1F [Example 81, 5-[(4-fluoro-3-methoxybenzoyl)(3-phenylpropyl)amino]pentanoic Acid] | < 5.00 | 33 | < 4.52 | 31
COc1cccc(C2(C(=O)N(CCCCC(=O)O)CCCc3ccccc3)CC2)c1 [Example 82, 5-{[1-(3-methoxyphenyl)cyclopropane-1-carbonyl](3-phenylpropyl)amino}pentanoic Acid] | < 5.00 | 2 | < 4.52 | 39
COc1ccc(C(=O)N(CCCCC(=O)O)CCCc2ccccc2)cc1OC [Example 83, 5-[(3,4-dimethoxybenzoyl)(3-phenylpropyl)amino]pentanoic Acid] | < 5.00 | 11 | < 4.52 | 25
COc1ccc(C(=O)N(CCCCC(=O)O)CCCc2ccccc2)cc1 [Example 84, 5-[(4-methoxybenzoyl)(3-phenylpropyl)amino]pentanoic Acid] | < 5.00 | 31 | < 4.52 | 7
COc1ccc(C(C)(C)C(=O)N(CCCCC(=O)O)CCCc2ccccc2)cc1 [Example 85, 5-{[2-(4-methoxyphenyl)-2-methylpropanoyl](3-phenylpropyl)amino}pentanoic Acid] | < 5.00 | 12 | < 4.52 | 14
COc1ccc(C2(C(=O)N(CCCCC(=O)O)CCCc3ccccc3)CCC2)cc1 [Example 86, 5-{[1-(4-methoxyphenyl)cyclobutane-1-carbonyl](3-phenylpropyl)amino}pentanoic Acid] | 5.53 | 74 | 7.36 | 88
COc1ccc(C2(C(=O)N(CCCc3ccccc3)CCOCC(=O)O)CC2)cc1 [Example 87, (2-{[1-(4-methoxyphenyl)cyclopropane-1-carbonyl](3-phenylpropyl)amino}ethoxy)acetic Acid] | 5.26 | 62 | 7.09 | 71
COc1ccc(C2(C(=O)N(CCCCC(=O)O)CCCc3cccc(F)c3)CC2)cc1 [Example 92, 5-{[3-(3-fluorophenyl)propyl][1-(4-methoxyphenyl)cyclopropane-1-carbonyl]amino}pentanoic Acid] | 5.35 | 72 | 7.22 | 90
CCCCC(CCCN(CCCc1ccccc1)C(=O)c1cc(OC)c(C)c(OC)c1)C(=O)O (stereo not shown) [Example 93, 2-{3-[(3,5-dimethoxy-4-methylbenzoyl)(3-phenylpropyl)amino]propyl}hexanoic Acid] | 6.09 | 84 | 7.37 | 96
COc1cc(C(=O)N(CCCCC(=O)O)Cc2ccccc2)cc(OC)c1C [Example 94, 5-[benzyl(3,5-dimethoxy-4-methylbenzoyl)amino]pentanoic Acid] | < 5.00 | 13 | < 4.52 | 2
